Values quoted from earlier work as cited in patent US7026316B2, “Dipeptidyl peptidase inhibitors for the treatment or prevention of diabetes” (Merck & Co., Inc., priority 2001, dated 2006).

Legend:
rats = settings: survival doubled from day 7 to day 14
DP-IV = DP-IV (Homo sapiens, UniProt P27487)
mouse = settings: cyclophosphamide-induced neutropenia

DP-IV, sequence (P27487 whole entry): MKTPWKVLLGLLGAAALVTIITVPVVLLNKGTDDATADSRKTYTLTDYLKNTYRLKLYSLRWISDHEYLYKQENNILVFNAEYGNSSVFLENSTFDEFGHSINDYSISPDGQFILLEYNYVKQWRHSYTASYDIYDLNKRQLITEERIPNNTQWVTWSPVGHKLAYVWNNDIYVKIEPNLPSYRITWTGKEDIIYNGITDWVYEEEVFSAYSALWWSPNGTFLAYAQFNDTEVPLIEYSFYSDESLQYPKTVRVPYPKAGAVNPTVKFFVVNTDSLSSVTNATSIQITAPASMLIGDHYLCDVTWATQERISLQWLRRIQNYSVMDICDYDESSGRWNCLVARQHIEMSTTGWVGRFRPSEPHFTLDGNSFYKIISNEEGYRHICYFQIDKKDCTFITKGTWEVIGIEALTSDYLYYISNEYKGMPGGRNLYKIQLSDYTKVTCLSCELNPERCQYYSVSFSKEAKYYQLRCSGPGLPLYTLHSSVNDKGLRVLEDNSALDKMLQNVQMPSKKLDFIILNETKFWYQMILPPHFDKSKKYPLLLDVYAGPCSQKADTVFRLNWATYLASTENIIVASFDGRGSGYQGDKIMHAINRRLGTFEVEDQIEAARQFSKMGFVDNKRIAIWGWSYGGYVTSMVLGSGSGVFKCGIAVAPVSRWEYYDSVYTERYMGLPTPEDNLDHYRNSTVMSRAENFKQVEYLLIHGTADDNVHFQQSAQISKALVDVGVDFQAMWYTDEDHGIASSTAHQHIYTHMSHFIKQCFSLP

Question: For `CC(C)N1CCC(c2ccccc2)(c2ccccc2)CC1` [Prodipine, Pro-Pro-diphenyl-phosphonate], which cardiac allograft survival (rats) is on record?
Answer: 14 day

Question: Which “degradation of GRH in plasma to GRH[3-44]” value (DP-IV) does the source give for `CC[C@H](C)[C@H](N)C(=O)N1CCC[C@H]1C(=O)N[C@H](C(=O)O)[C@@H](C)CC` [diprotin A] here?
Answer: prevented

Question: For `CC(C)[C@H](N)C(=O)N1CCC[C@H]1B(O)O` [Val-Boro-Pro], which hematopoiesis (mouse) is on record?
Answer: stimulated hematopoiesis
